# Key:
# mononuclear cells = settings: cited from earlier work
# neutrophils = settings: cited from earlier work
# T-cell = settings: cited from earlier work
# [1] = in vivo; cited from earlier work
# [2] = tested on: radiation enteropathy (irradiated small bowel); assay: Rat small bowel radiation enteropathy model, single dose irradiation; assay type: in vivo, rats
# Procedure: A 4-cm segment of distal ileum was sutured to the inside of the scrotum in orchiectomized male rats, thus forming an artificial “scrotal hernia”. The afferent bowel was divided 10 cm proximal to the “hernia”, an end ileostomy was prepared, and intestinal continuity was restored by end-to-side anastomosis. The intestine in the “hernia” was subsequently exposed to 0, 18, or 21 Gy single dose, or 8 daily fractions of 5.6 Gy (total dose 44.8 Gy), external beam X-irradiation. […] Mucosal injury was monitored non-invasively by assessment of granulocyte marker protein (GMP) excretion. Irradiated and shielded intestine were procured 2 weeks after irradiation and assessed for structural changes by histopathologic scoring, and for TGF-β, IL-1α, and ED-2 macrophage antigen immunoreactivity. Radiation injury scores are Ad the sum of 7 different histopathologic parameters graded according to severity. Intestinal wall thickness was measured with light microscopy and a stage micrometer. Intestinal wall TGF-β immunoreactivity levels were measured with computerized image analysis, and the number of ED-2 positive cells (macrophages) were counted with a light microscope and fields were determined according to a predetermined grid pattern.
# [3] = tested on: radiation enteropathy (irradiated small bowel); assay: Rat small bowel radiation enteropathy model, fractionated radiation; assay type: in vivo, rats; settings: 8 x 5.6 Gy, 30 mg/kg q.d. for 14 days
# Procedure: A 4-cm segment of distal ileum was sutured to the inside of the scrotum in orchiectomized male rats, thus forming an artificial “scrotal hernia”. The afferent bowel was divided 10 cm proximal to the “hernia”, an end ileostomy was prepared, and intestinal continuity was restored by end-to-side anastomosis. The intestine in the “hernia” was subsequently exposed to 0, 18, or 21 Gy single dose, or 8 daily fractions of 5.6 Gy (total dose 44.8 Gy), external beam X-irradiation. Orazipone or vehicle was injected through the stoma from 3 days prior to 2 weeks after irradiation. Mucosal injury was monitored non-invasively by assessment of granulocyte marker protein (GMP) excretion. Irradiated and shielded intestine were procured 2 weeks after irradiation and assessed for structural changes by histopathologic scoring, and for TGF-β, IL-1α, and ED-2 macrophage antigen immunoreactivity. Radiation injury scores are Ad the sum of 7 different histopathologic parameters graded according to severity. Intestinal wall thickness was measured with light microscopy and a stage micrometer. Intestinal wall TGF-β immunoreactivity levels were measured with computerized image analysis, and the number of ED-2 positive cells (macrophages) were counted with a light microscope and fields were determined according to a predetermined grid pattern.
# To evaluate the effects of Orazipone following fractionated radiation, the transposed loop of small bowel was exposed to sham-irradiation or 8 daily fractions of 5.6 Gy (total dose 44.8 Gy). Orazipone (30 mg/kg q.d.) or vehicle was delivered for 14 days in 2 separate experimental groups. Group 1 received the drug during and after irradiation (radiation day 2 through post-radiation day 7), while Group 2 received the drug only after irradiation (post-radiation days 0 through 13). All animals were euthanized on post-radiation day 14.
# [4] = single dose irradiation, vs vehicle-treated controls, p<0.01
# [5] = given either during or after irradiation
compound,measurement,setting,value
CC(=O)C(=Cc1ccc(S(C)(=O)=O)cc1)C(C)=O [Orazipone],"release of IL-1α, IL-1β and TNFα from mononuclear cells",mononuclear cells,inhibits
same,NADPH oxidase and LTB4 production by neutrophils,neutrophils,suppresses
same,T-cell proliferation and IL-2 release,T-cell,reduces
same,fate of absorbed drug (metabolism),[1],broken down into inactive metabolites very quickly
same,TGF-β overexpression,[2]; 30 mg/kg daily for 1 week after a single dose of 21 Gy,significantly attenuated
same,frequency of subacute severe small bowel radiation toxicity,"[2]; 30 mg/kg daily for 1 week after a single dose of 21 Gy, reduced from 80% (control)",25%
same,GMP excretion,[2]; single dose irradiation,not significantly affected
same,macrophage accumulation,[2]; single dose irradiation,not significantly affected
same,extracellular matrix-associated TGF-β immunoreactivity,[2]; [4],less
same,histopathologic injury of irradiated intestine,[2]; [4],less
same,intestinal wall thickening,"[2]; single dose irradiation, vs vehicle-treated controls, p<0.05",less
same,IL-1α positive cells,"[2]; single dose irradiation, vs vehicle-treated controls, p=0.05",less
same,subacute radiation enteropathy as assessed by Radiation Injury Score,[3]; [5],significantly ameliorated
same,subacute radiation enteropathy as assessed by extracellular matrix-associated TGF-β immunoreactivity,[3]; [5],significantly ameliorated
same,subacute radiation enteropathy as assessed by intestinal wall thickness,[3]; [5],significantly ameliorated
same,extent of mucosal injury (mucosal surface area measurements),[3]; among the treatment groups,did not differ

# Source: patent US6540976B1, “Method for reducing radiation toxicity” (The Board of Trustees of the University of Arkansas, priority 1997, dated 2003)
